Like-named read-outs stand apart in the source and are kept apart here.
Tests used:
[1] = rcm bond, 15-membered ring, Hoveyda-Grubbs II
HCV GT1a(H77) replicon = assay: HCV replicon luciferase reporter assay, genotype 1a; format: cell-based, HCV genotype 1a; settings: Hepatitis C virus, 72 h, HUH-7 cells, Renilla luciferase, 3 days incubation, read-out: LE_1a (EC50, range)
How it was run: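 Huh-7 cells stably carried a GT1a(H77) Renilla luciferase replicon with NS3 P1496L and NS5A S2204I adaptive mutations. Luminescence was read after 2 h with 7.5 μM EnduRen, and EC50 came from a four-parameter logistic fit; CC50 came from multiplexed Cell Titer-Blue (8 h).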

HCV GT1b(Con1) replicon = assay: HCV replicon luciferase reporter assay, genotype 1b; format: cell-based, HCV genotype 1b; settings: Hepatitis C virus, 72 h, HUH-7 cells, Renilla luciferase, 3 days incubation, read-out: LE_1b (EC50, range)
How it was run: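 HUH-7 cells stably carrying a Con1 GT1b replicon with Renilla luciferase and Ser1179Ile adaptive mutation; 3.0×10^3 cells/well, DMEM 4% FCS, 0.5% DMSO, twenty-point 3-fold titration, 3 days 37 °C. Luminescence 2 h after 7.5 μM EnduRen; EC50 by four-parameter logistic fit. CC50 from multiplexed Cell Titer-Blue fluorescence (8 h).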

`CC[C@@H]1CC(C)CC/C=C\[C@@H]2C[C@@]2(C(=O)NS(=O)(=O)C2CC2)NC(=O)[C@@H]2C[C@@H](O)CN2C(=O)[C@H]1NC(=O)OC(C)(C)C` (stereo partly shown) showed a ring closure, isolated yield ([1]; from C=CCCC(C)C[C@@H](CC)[C@H](NC(=O)OC(C)(C)C)C(=O)N1C[C@@H](O)CC1C(=O)N[C@]1(C(=O)NS(=O)(=O)C2CC2)C[C@H]1C=C, dichloroethane, 26.6 mM, 95.0 °C, 16.0 h) of 47%.
In the case of `CC1CC/C=C\[C@@H]2C[C@@]2(C(=O)NS(=O)(=O)C2(C)CC2)NC(=O)[C@@H]2C[C@@H](O)CN2C(=O)[C@@H](NC(=O)OC(C)(C)C)[C@H](C)C1` (stereo partly shown), the ring closure, isolated yield ([1]; from C=CCCC(C)C[C@@H](C)[C@H](NC(=O)OC(C)(C)C)C(=O)N1C[C@H](O)C[C@H]1C(=O)N[C@]1(C(=O)NS(=O)(=O)C2(C)CC2)C[C@H]1C=C, 1,2-dichloroethane, 8.8 mM, 80.0 °C, 2.0 h) is reported as 70%.
`CC[C@@H]1C[C@H](C)CC/C=C\[C@@H]2C[C@@]2(C(=O)NS(=O)(=O)C2CC2)NC(=O)[C@@H]2C[C@@H](Oc3cc(-c4ccc(C(F)(F)F)cc4)nc(-c4nccs4)c3)CN2C(=O)[C@H]1NC(=O)OC1(C(F)(F)F)CCCOC1` (stereo partly drawn) [Compound 1054, 3-(trifluoromethyl)tetrahydro-2H-pyran-3-yl ((2R,6S,7R,9R,13aS,14aR,16aS,Z)-14a-((cyclopropylsulfonyl)carbamoyl)-7-ethyl-9-methyl-5,16-dioxo-2-((2-(thiazol-2-yl)-6-(4-(trifluoromethyl)phenyl)pyridin-4-yl)oxy)-1,2,3,5,6,7,8,9,10,11,13a,14,14a,15,16,16a-hexadecahydrocyclopropa[e]pyrrolo[1,2-a][1,4]diazacyclopentadecin-6-yl)carbamate] showed an EC50 (HCV GT1a(H77) replicon) of 1.01 to 5 nM and an EC50 (HCV GT1b(Con1) replicon) of 0.51 to 1 nM.

Source: US9334279B2, “Hepatitis C virus inhibitors” (BRISTOL-MYERS SQUIBB COMPANY, priority 2012, dated 2016)
